“Also recorded” adds a separate entry of the source.

One data set relates to Lung (SCLC) LXFS 573. As to the kind of experiment: CFA, LXFS 573. Type of data set: cell-based, human. The note with it: PDX/CFA. The procedure:
(§1) CFA was performed by Charles River Laboratories (Freiburg, Germany) in 96-well plate format according to a modified two-layer soft agar assay. The origin of the tumor xenografts has been described (Fiebig et al. 1989, incorporated herein by reference). The list of tumors used in this study is detailed in Table 1.

The subject of data set [1] is Leukemia (AML) LEXFAM KG-1. As to the kind of experiment: CFA, LEXFAM KG-1. It counts as cell-based, human. The note with it: Cell line/CFA. As for the experimental part:
as §1

Data set [2] relates to Lung (NSCLC, epidermoid) LXFE 937. As to the kind of experiment: CFA, LXFE 937. Type of data set: cell-based, human. The note with it: PDX/CFA. As for the experimental part: as §1
The test system of another data set is Liver (HCC) LIXFH Hep G2. As to the kind of experiment: CFA, LIXFH Hep G2. The note with it: Cell line/CFA. Type of data set: cell-based, human. As for the experimental part: as §1
Data set [3] deals with Leukemia (BCLL) LEXFCM MEG-01. As to the kind of experiment: CFA, LEXFCM MEG-01. The note with it: Cell line/CFA. It counts as cell-based, human. As for the experimental part:
as §1

The test system of data set [4] is Lung (NSCLC, epidermoid) LXFE 690. As to the kind of experiment: CFA, LXFE 690. It counts as cell-based, human. The note with it: PDX/CFA. The procedure:
as §1

In data set [5] the test system is Lung (NSCLC, large) LXFL 1072. As to the kind of experiment: CFA, LXFL 1072. It counts as cell-based, human. The note with it: PDX/CFA. As for the experimental part: as §1
Another data set concerns the target T1, VDAC1/HK2 complex (Homo sapiens, UniProt P52789).
T1 construct: host or cells: E. coli (HK2); sheep liver mitochondria (VDAC1)
As to the kind of experiment: Microscale Thermophoresis (MST) dissociation of VDAC1/HK2 complex. Type of data set: binding. Conditions: cell-free MST; HK2 pre-incubated with 1.5 μM VDAC1. The procedure:
(§2) A431 (human skin SCC), HT-297.T (human AK), and HaCaT transformed normal keratinocyte cell lines were from ATCC (Manassas, VA) and were maintained in DMEM supplemented with 10% FCS, 4 mM L-Gln, 1 mM sodium pyruvate, 100 U/mL penicillin, 1 μg/mL streptomycin. Human HK1 and HK2 plasmids were purchased from Addgene (Cambridge, MA) and were purified from E. Coli. VDAC1 was purified from sheep liver mitochondria as described (Arbel et al. 2012, incorporated herein by reference). Human skin tissue microarray (SK208 and SK 805) were purchased from US Biomax Inc. (Rockville, MD).
Studies were conducted on Nanotemper Monolith NT.115 (Munich, Germany). HK1 and HK2 were labeled using Monolith™ NT.115 Protein Labeling Kit BLUE-NHS. As a preliminary study to form the VDAC1-HK complexes, various concentrations of VDAC1 were added to 67 nM HK1 or 71 nM HK2. The preferred VDAC1 concentration was determined to be 1.5 μM. For dissociation studies, HKs were pre-incubated with VDAC1 for 10 minutes and various concentrations of Formula C were added for an additional 10 minutes. MST default parameters were used and analysis was with Nanotemper analysis software. […]
The activity of Formula C in a cell-free assay was evaluated using Microscale Thermophoresis (MST) analysis, which is based on altered movement of a protein in a temperature gradient when bound to other molecules. […]
(In general: In MST a laser heats a spot of the sample, and binding alters the fluorescence response.)

Data set [6] is described as follows: AK/cSCC mouse model of chronic UVB exposure: local and general tolerability. It counts as in vivo. Conditions: UVB-exposed SKH-1 mice, Day 1 through Day 50. As for the experimental part: The formulation ingredients for vehicle, 2.5%, and 5% Formula C ointment consisted of: 32% Gelucire44/14® (Gattefosse, Saint-Priest, France), and 68% combined Labrasol® (Gattefosse, Saint-Priest, France) with corresponding amount of Formula C (w/w). New ointments were prepared every 2 weeks. The 40% topical solution was prepared just prior to use by mixing (w/w) 60% propylene glycol (Sigma, St. Louis, MO, USA) with 40% Formula C.
The effect of Formula C on cell proliferation and apoptosis was tested in an AK/cSCC mouse model of chronic UVB exposure. Forty-eight SKH-1 hairless female mice were chronically exposed to UVB radiation for 16 weeks. By that time, more than 60% of the animals had developed at least one SCC lesion. Three days after the final irradiation dose, the mice were randomly assigned to 1 of 4 treatment groups (N=12 mice/group) and a 50-day treatment phase started. Treatment groups included: vehicle, 2.5% or 5% Formula C ointment applied once-daily for 50 days, or 40% Formula C topical solution applied once-daily for the first 5 days of every three-week cycle (total of three treatment cycles).

Data set [7] concerns Lymphoma (Non-Hodgkin) LYXFNH U-937. As to the kind of experiment: CFA, LYXFNH U-937. Type of data set: cell-based, human. Conditions: Cell line/CFA. As for the experimental part:
as §1

The target in another data set is T2, HK1 (Homo sapiens, UniProt P19367).
T2 construct: host or cells: E. coli
T2 sequence (P19367 whole entry): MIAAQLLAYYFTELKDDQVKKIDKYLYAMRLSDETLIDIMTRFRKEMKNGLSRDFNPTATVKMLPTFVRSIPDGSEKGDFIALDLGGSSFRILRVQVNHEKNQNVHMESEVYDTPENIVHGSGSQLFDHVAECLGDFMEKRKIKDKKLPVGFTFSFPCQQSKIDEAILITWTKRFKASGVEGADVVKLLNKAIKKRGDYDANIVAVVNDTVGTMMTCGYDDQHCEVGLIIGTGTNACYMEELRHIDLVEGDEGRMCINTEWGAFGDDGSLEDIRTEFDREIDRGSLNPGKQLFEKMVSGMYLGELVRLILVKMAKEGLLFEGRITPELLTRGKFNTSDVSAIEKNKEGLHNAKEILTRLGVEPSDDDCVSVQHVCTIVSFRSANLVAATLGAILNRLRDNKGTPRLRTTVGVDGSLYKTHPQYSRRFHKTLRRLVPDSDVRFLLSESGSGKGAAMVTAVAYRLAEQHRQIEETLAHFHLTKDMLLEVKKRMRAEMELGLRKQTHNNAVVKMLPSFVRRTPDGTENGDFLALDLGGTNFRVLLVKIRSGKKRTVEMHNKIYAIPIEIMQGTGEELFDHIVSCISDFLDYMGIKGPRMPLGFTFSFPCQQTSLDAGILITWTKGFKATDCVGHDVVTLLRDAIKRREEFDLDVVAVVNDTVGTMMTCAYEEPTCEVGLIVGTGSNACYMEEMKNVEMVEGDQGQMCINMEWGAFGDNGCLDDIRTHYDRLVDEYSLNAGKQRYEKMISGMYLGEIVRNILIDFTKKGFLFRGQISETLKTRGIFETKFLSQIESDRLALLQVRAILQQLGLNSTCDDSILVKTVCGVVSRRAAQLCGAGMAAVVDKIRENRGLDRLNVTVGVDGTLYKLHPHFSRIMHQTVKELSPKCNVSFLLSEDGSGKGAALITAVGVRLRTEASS
As to the kind of experiment: HK catalytic activity coupled enzymatic assay, HK1. Type of data set: biochemical. The arrangement: dose or concentration left out as unconfirmed. Conditions: as a function of ATP or glucose; absence or presence of Formula C. The procedure:
as §2
Hexokinase catalytic activity was determined by the coupled enzymatic assay in which hexokinase catalyzes the conversion of glucose to G6P, which is then oxidized by glucose-6-phosphate dehydrogenase (G6PDH) in the presence of NADP to form 6-Phospho-D-Gluconate and NADPH. NADPH production results in a colorimetric signal at 340 nm, which is proportional to the hexokinase catalytic activity. The readings were recorded in an ELISA plate reader Infinite 200 ELISA reader (Tecan, Männedorf, Switzerland).

A further data set relates to Melanoma MEXF 535. As to the kind of experiment: CFA, MEXF 535. It counts as cell-based, human. The note with it: PDX/CFA. As for the experimental part: as §1
Data set [8] has as its system Leukemia (BCLL) LEXFCM K-562. As to the kind of experiment: CFA, LEXFCM K-562. The note with it: Cell line/CFA. It counts as cell-based, human. The procedure:
as §1

Data set [9] has as its system Leukemia (BCLL) LEXFCM JURL-MK1. As to the kind of experiment: CFA, LEXFCM JURL-MK1. Conditions: Cell line/CFA. It counts as cell-based, human. As for the experimental part: as §1

T1 sequence (P52789 whole entry, one chain of several): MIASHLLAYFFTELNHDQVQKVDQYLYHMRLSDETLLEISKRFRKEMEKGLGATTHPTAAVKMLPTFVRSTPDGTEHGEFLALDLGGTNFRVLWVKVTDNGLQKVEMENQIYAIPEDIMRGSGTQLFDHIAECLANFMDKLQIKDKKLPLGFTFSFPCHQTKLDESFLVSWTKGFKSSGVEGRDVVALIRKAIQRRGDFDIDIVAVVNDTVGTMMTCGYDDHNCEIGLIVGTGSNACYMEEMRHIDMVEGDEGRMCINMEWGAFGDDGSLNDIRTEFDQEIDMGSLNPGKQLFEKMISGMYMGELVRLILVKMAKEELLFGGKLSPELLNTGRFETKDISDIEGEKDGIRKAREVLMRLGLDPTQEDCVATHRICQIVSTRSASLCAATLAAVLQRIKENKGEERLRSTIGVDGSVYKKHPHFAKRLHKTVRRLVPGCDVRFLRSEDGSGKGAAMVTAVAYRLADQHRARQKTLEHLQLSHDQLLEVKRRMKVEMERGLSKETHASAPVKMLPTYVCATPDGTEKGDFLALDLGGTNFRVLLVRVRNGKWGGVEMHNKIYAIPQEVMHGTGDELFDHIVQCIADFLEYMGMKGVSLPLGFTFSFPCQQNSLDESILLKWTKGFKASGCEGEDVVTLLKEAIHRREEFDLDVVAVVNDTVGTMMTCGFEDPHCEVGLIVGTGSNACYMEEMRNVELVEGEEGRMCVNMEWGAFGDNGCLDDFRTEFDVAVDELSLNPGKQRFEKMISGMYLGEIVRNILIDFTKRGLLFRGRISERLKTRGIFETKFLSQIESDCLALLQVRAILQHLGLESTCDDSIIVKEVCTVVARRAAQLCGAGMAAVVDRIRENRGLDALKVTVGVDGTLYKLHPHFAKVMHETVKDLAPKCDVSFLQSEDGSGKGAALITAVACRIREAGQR

`CC/C=C\CC1C(=O)CCC1CC(=O)Oc1cccc2cccnc12` (centres unmarked) [Formula C]: the IC50 (as a rule, the midpoint of a concentration-inhibition curve) in the data set with Lung (SCLC) LXFS 573 was determined as 1940 nM; in [1] it was 1160 nM; in data set [2], 5570 nM; in the data set with Liver (HCC) LIXFH Hep G2, 5200 nM; in [3], 2760 nM; in [4], 6820 nM. The IC50 in data set [5] was 1570 nM; against VDAC1/HK2 complex it was 92 nM; in [7], 1280 nM; with Melanoma MEXF 535, 538 nM; in data set [8] it was 2340 nM; in data set [9] it was 1670 nM. The “adverse local skin reactions” value in data set [6] (2.5%, 5% ointment or 40% topical solution) was “no adverse local skin reactions of any kind”. For the same molecule, the body weight abnormalities entry in data set [6] was “no abnormalities in body weight”. The clinical signs result in data set [6] is listed as “no clinical signs”. The erythema or edema result in data set [6] was “no erythema or edema”. The HK1 catalytic activity result at HK1 was “does not affect; also recorded: did not affect the catalytic activity”.

The values above are taken from US12527782B2, “Use of hexokinase 2/mitochondria-detaching compounds for treating hexokinase-2 (HK2)-expressing cancers” (Vidac Pharma Ltd., priority 2016, dated 2026).
